# According to patent US11020409B2, “Broad antiviral therapy with membrane modifying oxysterols” (priority 2012, dated 2021):
# System: VSV-GFP
# Test: microbe, parasite or virus in culture
# Format: cell-based, vesicular stomatitis virus
compound,measurement,value
"C[C@H](CCCC(C)(C)O)[C@H]1CC[C@H]2[C@@H]3CC=C4C[C@@H](O)CC[C@]4(C)[C@H]3CC[C@]12C [25HC, 25-hydroxycholesterol]","VSV infection in HEK293T overexpressing active forms of SREBP1-A, SREBP1-B, and SREBP2",inhibited VSV infection
